Read-outs that look alike come from different tables or passages of the source.
Key:
[1] = system: HTNV-76118 strain; assay: microbe, parasite or virus in culture; format: cell-based, Hantaan virus (HTNV); conditions: Orthohantavirus hantanense, Vero C1008, 120 h
[2] = system: HTNV-76118 strain; assay: microbe, parasite or virus in culture; format: cell-based, Hantaan virus (HTNV); conditions: Orthohantavirus hantanense, Vero C1008, read-out: EC50, 2H pretreatment
[3] = system: HTNV-76118 strain; assay: microbe, parasite or virus in culture; format: cell-based, Hantaan virus (HTNV); conditions: Orthohantavirus hantanense, Vero C1008, read-out: EC50, Post entry
[4] = system: HTNV-76118 strain; assay: microbe, parasite or virus in culture; format: cell-based, Hantaan virus (HTNV); conditions: for EC50: Orthohantavirus hantanense, Vero C1008, read-out: EC50, Virucidal
[5] = system: HTNV; format: cell-based, Hantaan virus (HTNV)
[6] = in vitro; conditions: African green monkey

Compound	EC50 [1] [µM]	EC50 [2] [µM]	EC50 [3] [µM]	direct virucidal effect on HTNV [4]	EC50 [4] [µM]	suppression of viral replication (HTNV nucleoprotein immunofluorescence) [5]	CC50 [6] [µM]
CC(C)CC(=O)c1c(O)c2c(c3c1OC1(O)C(C(=O)C(C)(C)C(=O)C1(C)C)C3C(C)C)OC1=C(C(=O)C(C)(C)C(=O)C1(C)C)C2CC(C)C (stereo not shown) [Callistemontrimer A, callistemontrimer A]	4.41 ± 3.4	> 50	0.65 ± 0.45	neither compound exhibited a direct virucidal effect	> 50	effectively suppressed viral replication	32.1 ± 6
CC(C)CC(=O)c1c(O)c2c(c3c1OC1(O)C(C(=O)C(C)(C)C(=O)C1(C)C)C3CC(C)C)OC1=C(C(=O)C(C)(C)C(=O)C1(C)C)C2CC(C)C (stereo not shown) [Callistemontrimer B, callistemontrimer B]	2.79 ± 1.4	–	–	–	–	–	16.9 ± 1
CC(C)CC(=O)c1c(O)cc2c(c1O)C(CC(C)C)C1=C(O2)C(C)(C)C(=O)C(C)(C)C1=O (stereo not shown) [Rhodomyrtone, rhodomyrtone]	0.3 ± 0.03	–	–	–	–	–	5.11 ± 2.49
CC(C)CC(=O)c1c(O)cc(O)c2c1OC1=C(C(=O)C(C)(C)C(=O)C1(C)C)C2CC(C)C (stereo not shown) [Rhodomyrtosone B, rhodomyrtosone B]	2.69 ± 0.32	–	–	–	–	–	7.44 ± 1.15
NC(=O)c1ncn([C@@H]2O[C@H](CO)[C@@H](O)[C@H]2O)n1 [Ribavirin, ribavirin, reference compound]	20.5 ± 1.63	> 200	13.2 ± 0.4	neither compound exhibited a direct virucidal effect	> 200	–	> 200

From publication PMC12299576 (Viruses, 2025)
